This is an account of results in patent US10251893B2 (NOVARTIS AG, priority 2009, dated 2019).

One may read the IC50 as the midpoint of a concentration-inhibition curve. Higher therefore signals lower potency.

The test system of the test is Wnt signaling. Put plainly: Wnt-Luc reporter assay for pathway inhibition of Wnt signaling. It is filed as cell-based, Mouse (TM3 Wnt-Luc cells) or Human (293 Wnt-Luc cells). To be noted: 24 h, Wnt-Luc reporter cells co-cultured with L-cell Wnt3a cells, luciferase luminescence reduced by 50%. From the text: The exemplified compounds of the invention are summarized in Table 1, with IC50 values measured using Wnt-Luc reporter assays.
Turning to `Cc1cc(-c2ccc(CC(=O)Nc3ccc(-c4ccccc4)cn3)cc2)ccn1` [Cpd 26], the IC50 is < 0.4 nM. Next, `Cc1cc(CC(=O)Nc2ccc(-c3cccc(F)c3)cn2)cnc1-c1ccnnc1` [Cpd 74]: < 0.1 nM.

With `Cc1cc(-c2ncc(CC(=O)Nc3ccc(-c4cnccn4)cn3)cc2C)ccn1` [Cpd 86], the IC50 amounted to 0.38 nM. Next, `Cc1cc(-c2ccc(CC(=O)Nc3ccc(-c4ccccc4)nc3)cc2)ccn1` [compound 36]: < 0.11 nM; `Cc1cc(-c2ccc(CC(=O)Nc3ccc(-c4ccccc4)cn3)cn2)ccn1` [compound 51]: < 0.14 nM; `Cc1cc(-c2ccc(CC(=O)Nc3ccc(-c4cccc(F)c4)cn3)cc2)ccn1` [compound 56]: < 0.09 nM. Next, `Cc1cc(-c2ccc(CC(=O)Nc3ccc(-c4cccnc4)cc3)cc2)ccn1` [compound 59]: < 0.11 nM.
